The target in assay [1] is T1, focal adhesion kinase (FAK) autophosphorylation at tyrosine 397 in HT29 cells (Homo sapiens, UniProt Q05397).
T1 construct: endogenous in cells; host or cells: HT29
In words: Cellular testing of FAK inhibitors: FAK autophosphorylation at tyrosine 397 in HT29 cells (Luminex-based assay). It is filed as cell-based. The settings on record: 30 min serum-free, read-out: HT-29 IC50. The procedure: 2. Assay Principle for Celluar Testing of FAK Inhibitors
Cellular activity of focal adhesion kinase (FAK) is determined by the degree of FAK autophosphorylation at tyrosine 397 using a Luminex-based assay. HT29 cells are plated with 30,000 cells per well of a 96-well plate in 100 μl medium (90% DMEM/10% FCS). At the following day, test compounds are added in a serial dilution under serum-free conditions for 30 min. Then, cells were lysed with 90 μl lysis buffer (20 mM Tris/HCl pH 8.0, 150 mM NaCl, 1% NP40, 10% Glycerol, 1% Phosphatase-Inhibitor II, 20 mM […]-Glycerolphosphat, 0.1% Protease-Inhibitor Cocktail III, 0.01% Benzonase) and lysates were cleared by centrifugation through a 96-well filter plate (0.65 μm). Samples were incubated with Luminex-beads which were coupled with an anti-total FAK antibody overnight at 4° C. with under gentle agitation. For detection of phospho-Y397-FAK a phosphospecific antibody and a species specific PE-labeled secondary antibody are added. The amount of phospho-Y397-FAK is determined in a Luminex100 machine measuring 100 events per well within 60 seconds.
Counts from samples treated with a FAK reference inhibitor are subtracted as pharmacological blank. Counts from samples treated with test compounds are calculated as percent of control from solvent treated (0.3% DMSO) samples. IC50 values were determined using AssayExplorer software.

Assay [2] addresses T2, GST-FAK (N-terminal GST fusion with truncated human FAK (376-1052 (end) amino acids)) (Homo sapiens, UniProt Q05397).
T2 construct: truncated human FAK (376-1052 (end) amino acids)
Nature of the assay: Biochemical enzyme assay for FAK activity (Caliper LC3000 mobility shift). Particulars: 100 uM ATP, read-out: FAK IC50. The method, boiled down:
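Inhibitor dose series in DMSO were incubated 90 min at 25 °C with truncated GST-tagged human FAK (0.067 ng/µl) and FITC-labelled peptide substrate (1 µM), with ATP at 100 µM and FERM peptide at 1 mM (pH 7.5 HEPES). After EDTA quench, phosphorylated and unphosphorylated peptides were resolved electrophoretically. Percent conversion was fitted for IC50.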

Where two headings read alike, the source gives them in different places.

T2 sequence (Q05397 376-1052): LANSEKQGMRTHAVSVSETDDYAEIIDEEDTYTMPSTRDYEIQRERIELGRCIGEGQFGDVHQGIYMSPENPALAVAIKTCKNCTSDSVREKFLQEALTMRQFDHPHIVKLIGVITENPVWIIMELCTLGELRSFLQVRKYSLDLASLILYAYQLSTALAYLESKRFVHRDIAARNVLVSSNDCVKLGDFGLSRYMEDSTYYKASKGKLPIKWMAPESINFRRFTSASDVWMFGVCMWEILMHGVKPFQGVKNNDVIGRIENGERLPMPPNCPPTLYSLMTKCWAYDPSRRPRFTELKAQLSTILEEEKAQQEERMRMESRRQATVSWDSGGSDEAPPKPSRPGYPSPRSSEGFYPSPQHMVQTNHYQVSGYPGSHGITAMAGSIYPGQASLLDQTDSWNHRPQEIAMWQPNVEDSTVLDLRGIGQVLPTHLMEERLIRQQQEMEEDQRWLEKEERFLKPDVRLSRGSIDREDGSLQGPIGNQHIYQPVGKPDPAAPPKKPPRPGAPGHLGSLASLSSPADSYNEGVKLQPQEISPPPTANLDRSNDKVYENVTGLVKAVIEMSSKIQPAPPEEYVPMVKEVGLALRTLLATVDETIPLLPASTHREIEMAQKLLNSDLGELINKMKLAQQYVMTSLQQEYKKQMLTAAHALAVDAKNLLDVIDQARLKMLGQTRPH
T1 sequence (Q05397 whole entry): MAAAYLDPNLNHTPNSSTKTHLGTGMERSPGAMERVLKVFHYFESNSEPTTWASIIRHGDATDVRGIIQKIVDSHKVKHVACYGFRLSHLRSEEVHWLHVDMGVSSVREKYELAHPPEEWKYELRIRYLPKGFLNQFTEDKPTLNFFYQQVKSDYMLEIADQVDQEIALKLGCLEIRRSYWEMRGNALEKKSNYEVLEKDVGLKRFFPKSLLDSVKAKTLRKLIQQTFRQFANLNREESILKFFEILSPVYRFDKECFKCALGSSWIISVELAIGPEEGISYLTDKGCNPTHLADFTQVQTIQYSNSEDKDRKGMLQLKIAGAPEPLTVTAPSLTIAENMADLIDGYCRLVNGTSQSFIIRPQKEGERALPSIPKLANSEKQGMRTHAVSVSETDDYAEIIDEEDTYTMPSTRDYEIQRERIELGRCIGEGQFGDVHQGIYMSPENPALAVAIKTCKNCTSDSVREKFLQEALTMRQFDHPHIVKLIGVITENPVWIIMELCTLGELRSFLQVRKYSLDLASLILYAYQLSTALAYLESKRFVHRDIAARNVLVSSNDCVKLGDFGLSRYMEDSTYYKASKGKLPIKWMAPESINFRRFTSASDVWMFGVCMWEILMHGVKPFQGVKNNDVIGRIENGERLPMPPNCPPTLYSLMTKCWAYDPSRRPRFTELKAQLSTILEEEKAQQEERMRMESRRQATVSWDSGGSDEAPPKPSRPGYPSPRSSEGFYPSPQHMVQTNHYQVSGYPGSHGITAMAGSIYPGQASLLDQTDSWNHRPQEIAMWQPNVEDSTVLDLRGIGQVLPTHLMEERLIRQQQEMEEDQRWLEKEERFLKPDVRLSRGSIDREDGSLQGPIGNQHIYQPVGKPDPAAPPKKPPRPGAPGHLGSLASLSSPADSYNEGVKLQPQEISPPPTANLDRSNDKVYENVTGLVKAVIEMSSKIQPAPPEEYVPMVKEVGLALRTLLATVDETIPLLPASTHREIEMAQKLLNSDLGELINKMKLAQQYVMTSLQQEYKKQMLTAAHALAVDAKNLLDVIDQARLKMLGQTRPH

Usually IC50 stands for the concentration that gives 50% inhibition. Turning to `FC(F)(F)c1cncc(-c2nccc(NCc3ccc(Cl)cc3C(F)(F)F)n2)c1` [Compound 132, N-[4-Chloro-2-(trifluoromethyl)benzyl]-2-[5-(trifluoro-methyl)pyridin-3-yl]pyrimidin-4-amine], the IC50 in assay [1] (Table 3, phospho-Y397-FAK) is 1000 to 10000 nM; in assay [2] (Table 3), less than 100 nM.

For the compound `NC(=O)CCNC(=O)c1cc(NCc2ccc(F)cc2F)nc(-c2cncc(C(F)(F)F)c2)n1` [Compound 41, 6-(2,4-Difluoro-benzylamino)-2-(5-trifluoromethyl-pyridin-3-yl)-pyrimidine-4-carboxylic acid (2-carbamoyl-ethyl)-amide], the IC50 in assay [1] (Table 2, phospho-Y397-FAK) was 100 to 1000 nM; in assay [2] (Table 2), less than 100 nM.

For `CN(C)CCCNc1cc(NCc2ccc(F)cc2F)nc(-c2cncc(C(F)(F)F)c2)n1` [Compound 60, N-(2,4-Difluoro-benzyl)-N′-(3-dimethylamino-propyl)-2-(5-trifluoromethyl-pyridin-3-yl)-pyrimidine-4,6-diamine], the IC50 in assay [1] (Table 2, phospho-Y397-FAK) was 1000 to 10000 nM; in assay [2] (Table 2), less than 100 nM.

`Fc1ccc(CNc2ccnc(-c3cncc(Cl)c3)n2)c(C(F)(F)F)c1` [Compound 119, 2-(5-Chloropyridin-3-yl)-N-[4-fluoro-2-(trifluoromethyl)benzyl]pyrimidin-4-amine]: the IC50 in assay [1] (Table 3, phospho-Y397-FAK) is 1000 to 10000 nM; in assay [2] (Table 3), less than 100 nM.

On to `O=C(NCCCN1CCCC1=O)c1cc(NCc2ccc(F)cc2F)nc(-c2cncc(C(F)(F)F)c2)n1` [Compound 47, 6-(2,4-Difluoro-benzylamino)-2-(5-trifluoromethyl-pyridin-3-yl)-pyrimidine-4-carboxylic acid [3-(2-oxo-pyrrolidin-1-yl)-propyl]-amide], for which the IC50 in assay [1] (Table 2, phospho-Y397-FAK) is 100 to 1000 nM; in assay [2] (Table 2), less than 100 nM.

Turning to `O=C(CCNc1cc(NCc2ccc(F)cc2F)nc(-c2cncc(C(F)(F)F)c2)n1)N1CCOCC1` [Compound 63, 3-[6-(2,4-Difluoro-benzylamino)-2-(5-trifluoromethyl-pyridin-3-yl)-pyrimidin-4-ylamino]-1-morpholin-4-yl-propan-1-one], the IC50 in assay [1] (Table 2, phospho-Y397-FAK) fell in the range of 1000 to 10000 nM; in assay [2] (Table 2) it was 100 to 1000 nM.

Consider `FC(F)(F)c1cc(Cl)ccc1CNc1ccnc(-c2cncc(Cl)c2)n1` [Compound 118, 2-(5-Chloropyridin-3-yl)-N-[4-chloro-2-(trifluoromethyl)benzyl]pyrimidin-4-amine], for which the IC50 in assay [1] (Table 3, phospho-Y397-FAK) was 1000 to 10000 nM; in assay [2] (Table 3), less than 100 nM.

On to `CCN(CC)C(=O)CCNC(=O)c1cc(NCc2ccc(F)cc2F)nc(-c2cncc(C(F)(F)F)c2)n1` [Compound 42, 6-(2,4-Difluoro-benzylamino)-2-(5-trifluoromethyl-pyridin-3-yl)-pyrimidine-4-carboxylic acid (2-diethylcarbamoyl-ethyl)-amide], for which the IC50 in assay [1] (Table 2, phospho-Y397-FAK) was 1000 to 10000 nM; in assay [2] (Table 2), less than 100 nM.

Take `O=C(NCCC(=O)N1CCOCC1)c1cc(NCc2ccc(F)cc2F)nc(-c2cncc(C(F)(F)F)c2)n1` [Compound 43, 6-(2,4-Difluoro-benzylamino)-2-(5-trifluoromethyl-pyridin-3-yl)-pyrimidine-4-carboxylic acid (3-morpholin-4-yl-3-oxo-propyl)-amide]: the IC50 in assay [1] (Table 2, phospho-Y397-FAK) was 1000 to 10000 nM; in assay [2] (Table 2) it was less than 100 nM.

With `NC(=O)CNC(=O)c1cc(NCc2ccc(F)cc2F)nc(-c2cncc(C(F)(F)F)c2)n1` [Compound 72, 6-(2,4-Difluoro-benzylamino)-2-(5-trifluoromethyl-pyridin-3-yl)-pyrimidine-4-carboxylic acid carbamoylmethyl-amide], the IC50 in assay [1] (Table 2, phospho-Y397-FAK) was 100 to 1000 nM; in assay [2] (Table 2), less than 100 nM.

`Nc1ncc(Cl)cc1-c1nccc(NCc2ccccc2C(F)(F)F)n1` [Compound 129, 2-(2-Amino-5-chloropyridin-3-yl)-N-[2-(trifluoromethyl)benzyl]pyrimidin-4-amine]: the IC50 is 1000 to 10000 nM in assay [1] (Table 3, phospho-Y397-FAK) and less than 100 nM in assay [2] (Table 3).

As to `CN(C)CCCNC(=O)c1cc(NCc2ccc(F)cc2F)nc(-c2cncc(C(F)(F)F)c2)n1` [Compound 45, 6-(2,4-Difluoro-benzylamino)-2-(5-trifluoromethyl-pyridin-3-yl)-pyrimidine-4-carboxylic acid (3-dimethylamino-propyl)-amide], the concentration for half-maximal inhibition (IC50) in assay [1] (Table 2, phospho-Y397-FAK) is 1000 to 10000 nM; in assay [2] (Table 2) it was less than 100 nM.

Consider `Fc1cncc(-c2nccc(NCc3cccc(Oc4cnccn4)c3)n2)c1` [Compound 9, [2-(5-Fluoro-pyridin-3-yl)-pyrimidin-4-yl]-[3-(pyrazin-2-yloxy)-benzyl]-amine], for which the IC50 in assay [2] (Table 1) was greater than 10000 nM.

Take `Nc1ncccc1-c1cc(NCc2ccccc2F)ccn1` [Compound 106, N4-(2-Fluorobenzyl)-2,3′-bipyridine-2′,4-diamine]: in assay [2] (Table 3), the IC50 was greater than 10000 nM.

Turning to `COC(=O)c1cc(NCc2ccc(F)cc2F)nc(-c2cncc(C(F)(F)F)c2)n1` [Compound 273, 6-(2,4-Difluoro-benzylamino)-2-(5-trifluoromethyl-pyridin-3-yl)-pyrimidine-4-carboxylic acid methyl ester], the IC50 in assay [2] (Table 5) lay in the range of 100 to 1000 nM.

With `FC(F)(F)c1cncc(-c2nccc(NCCc3ccccc3Cl)n2)c1` [Compound 198, [2-(2-Chloro-phenyl)-ethyl]-[2-(5-trifluoromethyl-pyridin-3-yl)-pyrimidin-4-yl]-amine], the IC50 in assay [2] (Table 5) lay in the range of 1000 to 10000 nM.

Regarding `Nc1ncccc1-c1nccc(NCc2ncccc2C(F)(F)F)n1` [Compound 100, 2-(2-Aminopyridin-3-yl)-N-{[3-(trifluoromethyl)pyridin-2-yl]methyl}pyrimidin-4-amine], the IC50 in assay [2] (Table 3) was 1000 to 10000 nM.

For `N#Cc1cncc(-c2ncc(C(F)(F)F)c(NCc3ccc(F)cc3F)n2)c1` [Compound 215, 5-[4-(2,4-Difluoro-benzylamino)-5-trifluoromethyl-pyrimidin-2-yl]-nicotinonitrile], the IC50 in assay [2] (Table 5) was greater than 10000 nM.

In the case of `Cc1nc(CCNC(=O)c2cc(NCc3ccc(F)cc3F)nc(-c3cncc(C(F)(F)F)c3)n2)cs1` [Compound 73, 6-(2,4-Difluoro-benzylamino)-2-(5-trifluoromethyl-pyridin-3-yl)-pyrimidine-4-carboxylic acid [2-(2-methyl-thiazol-4-yl)-ethyl]-amide], the IC50 in assay [2] (Table 2) lay within 100 to 1000 nM.

Regarding `O=C(NCCn1cccn1)c1cc(NCc2ccc(F)cc2F)nc(-c2cncc(C(F)(F)F)c2)n1` [Compound 71, 6-(2,4-Difluoro-benzylamino)-2-(5-trifluoromethyl-pyridin-3-yl)-pyrimidine-4-carboxylic acid (2-pyrazol-1-yl-ethyl)-amide], in assay [2] (Table 2), the IC50 was less than 100 nM.

Regarding `Cc1cc(F)ncc1-c1nccc(NCc2ccc(F)cc2F)n1` [Compound 211, (2,4-Difluoro-benzyl)-[2-(6-fluoro-4-methyl-pyridin-3-yl)-pyrimidin-4-yl]-amine], in assay [2] (Table 5), the IC50 is greater than 10000 nM.

As to `c1ccc(CNc2ccnc(-c3cccnc3)n2)cc1` [Compound 139, N-Benzyl-2-pyridin-3-ylpyrimidin-4-amine], the IC50 in assay [2] (Table 3) is greater than 10000 nM.

Turning to `Fc1cncc(-c2nccc(NCc3ccc4c(c3)OCCO4)n2)c1` [Compound 12, (2,3-Dihydro-benzo[1,4]dioxin-6-ylmethyl)-[2-(5-fluoro-pyridin-3-yl)-pyrimidin-4-yl]-amine], the IC50 in assay [2] (Table 1) was greater than 10000 nM.

With `COc1cncc(-c2nccc(NCc3cccc(Oc4cnccn4)c3)n2)c1` [Compound 3, [2-(5-Methoxy-pyridin-3-yl)-pyrimidin-4-yl]-[3-(pyrazin-2-yloxy)-benzyl]-amine], the IC50 in assay [2] (Table 1) is greater than 10000 nM.

With `Fc1ccc(CNc2cc(-c3cncc(C(F)(F)F)c3)ncn2)c(F)c1` [Compound 254, (2,4-Difluoro-benzyl)-[6-(5-trifluoromethyl-pyridin-3-yl)-pyrimidin-4-yl]-amine], the IC50 in assay [2] (Table 5) was greater than 10000 nM.

Regarding `OC[C@H](Nc1ccnc(-c2cncc(C(F)(F)F)c2)n1)c1ccccc1` [Compound 271, (R)-2-Phenyl-2-[2-(5-trifluoromethyl-pyridin-3-yl)-pyrimidin-4-ylamino]-ethanol], the IC50 in assay [2] (Table 5) lay within 100 to 1000 nM.

In the case of `Nc1ncccc1-c1nccc(NCc2c(F)cccc2C(F)(F)F)n1` [Compound 111, 2-(2-Aminopyridin-3-yl)-N-[2-fluoro-6-(trifluoromethyl)benzyl]pyrimidin-4-amine], in assay [2] (Table 3), the IC50 is 1000 to 10000 nM.

Turning to `CNC(=O)[C@H](NC(=O)c1cc(NCc2ccc(F)cc2F)nc(-c2cncc(C(F)(F)F)c2)n1)C(C)C` [Compound 76, 6-(2,4-Difluoro-benzylamino)-2-(5-trifluoromethyl-pyridin-3-yl)-pyrimidine-4-carboxylic acid ((R)-2-methyl-1-methylcarbamoyl-propyl)-amide], the IC50 in assay [2] (Table 2) was in the range of 100 to 1000 nM.

The values are drawn from US9199962B2, “Substituted azaheterocycles for the treatment of cancer” (Merck Patent GmbH, priority 2011, dated 2015).
